Experimental data taken from ChEMBL document CHEMBL1131861, “Antitumor agents 200. Cytotoxicity of naturally occurring resveratrol oligomers and their acetate derivatives” (1999).
Converted amounts (≈) assume the structure as drawn. The source made the active and inactive calls. The rule behind the calls is not given here.

Assays:
[1] = tested on: 1A9; assay: Cytotoxicity against human ovarian cancer (1A9) cell lines.; type: functional; settings: read-out: ED50 (the source's name)
[2] = tested on: A549; assay: Cytotoxicity against human lung carcinoma (A549) cell lines; Not active; type: functional, cell-based
[3] = tested on: CAKI-1; assay: Cytotoxicity against human renal cancer(CAKI-1) cell lines; type: functional; settings: read-out: ED50 (the source's name)
[4] = tested on: HCT-8; assay: Cytotoxicity against human ileocecal carcinoma (HCT-8) cell lines.; type: functional; settings: read-out: ED50 (the source's name)
[5] = tested on: KB; assay: Cytotoxicity against human epidermoid carcinoma of the nasopharynx(KB) cell lines.; type: functional; settings: read-out: ED50 (the source's name)
[6] = tested on: MCF7; assay: Cytotoxicity against human breast cancer(MCF-7) cell lines.; type: functional; settings: read-out: ED50 (the source's name)
[7] = tested on: A549; assay: Cytotoxicity against human lung carcinoma (A549) cell lines; type: functional; settings: read-out: ED50 (the source's name)
[8] = tested on: CAKI-1; assay: Cytotoxicity against human renal cancer(CAKI-1) cell lines; […]; type: functional, cell-based
[9] = tested on: SAOS-2; assay: Cytotoxicity against human osteosarcoma (SaOS-2) cell lines.; type: functional; settings: read-out: ED50 (the source's name)
[10] = tested on: SAOS-2; assay: Percentage inhibition of human osteosarcoma (SaOS-2) cell lines.; type: functional
[11] = tested on: HCT-8; assay: Percentage inhibition human ileocecal carcinoma (HCT-8) cell lines.; type: functional
[12] = tested on: MCF7; assay: Percentage inhibition of human breast cancer(MCF-7) cell lines.; type: functional
[13] = tested on: CAKI-1; assay: Percentage inhibition of human renal cancer(CAKI-1) cell lines; type: functional
[14] = tested on: A549; assay: Percentage inhibition of human lung carcinoma (A549) cell lines; type: functional
[15] = tested on: 1A9; assay: Percentage inhibition of human ovarian cancer (1A9) cell lines.; type: functional
[16] = tested on: KB; assay: Percentage inhibition of human epidermoid carcinoma of the nasopharynx(KB) cell lines.; type: functional

Row | SMILES | EC50 [1] [µg/mL] | ED50 [2] | EC50 [3] [µg/mL] | EC50 [4] [µg/mL] | EC50 [5] [µg/mL] | EC50 [6] [µg/mL] | EC50 [7] [µg/mL] | ED50 [8] | EC50 [9] [µg/mL] | Inhibition [10] [%] | Inhibition [11] [%] | Inhibition [12] [%] | Inhibition [13] [%] | Inhibition [14] [%] | Inhibition [15] [%] | Inhibition [16] [%]
1 | CC(=O)Oc1ccc([C@@H]2c3c(OC(C)=O)cc(OC(C)=O)cc3[C@H]3[C@H](c4ccc(OC(C)=O)cc4)c4c(OC(C)=O)cc(OC(C)=O)cc4[C@@H]23)cc1 | 3.2 (≈ 4.53 µM) | inactive | 8 (≈ 11.3 µM) | 8 (≈ 11.3 µM) | 1.6 (≈ 2.26 µM) | 7.4 (≈ 10.5 µM) |  |  |  |  |  |  |  |  |  | 
2 | CC(=O)Oc1ccc(/C=C/c2cc(OC(C)=O)cc3c2[C@H](c2cc(OC(C)=O)cc(OC(C)=O)c2)[C@@H](c2ccc(OC(C)=O)cc2)O3)cc1 | 5.8 (≈ 8.73 µM) |  |  |  | 7.5 (≈ 11.3 µM) | 4 (≈ 6.02 µM) | 20 (≈ 30.1 µM) | inactive | 7.5 (≈ 11.3 µM) |  |  |  |  |  |  | 
3 | Oc1ccc([C@@H]2c3c(O)cc(O)cc3[C@@H]3c4c(cc(O)cc4[C@H]2[C@@H]2c4cc(O)cc5c4[C@@H](c4cc(O)cc(O)c4[C@H]2c2ccc(O)cc2)[C@H](c2ccc(O)cc2)O5)O[C@H]3c2ccc(O)cc2)cc1 | 7.8 (≈ 8.6 µM) |  |  |  | 1.2 (≈ 1.32 µM) | 4.2 (≈ 4.63 µM) | 4.8 (≈ 5.29 µM) | inactive | > 20 | 41 |  |  |  |  |  | 
4 | CC(=O)Oc1ccc([C@@H]2c3c(OC(C)=O)cc(OC(C)=O)cc3[C@@H]3c4c(OC(C)=O)cc(OC(C)=O)cc4C2[C@H]3c2ccc(OC(C)=O)cc2)cc1 | 6 (≈ 8.49 µM) | inactive | > 10 | > 10 | 3 (≈ 4.25 µM) | > 10 |  |  |  |  | 36 | 43 | 21 |  |  | 
5 | CC(=O)Oc1ccc([C@H]2c3c(OC(C)=O)cc(OC(C)=O)cc3[C@H]3c4c(cc(OC(C)=O)cc4[C@@H]2OC(C)=O)O[C@@H]3c2ccc(OC(C)=O)cc2)cc1 | 0.7 (≈ 0.969 µM) | inactive | 4 (≈ 5.53 µM) | 4.1 (≈ 5.67 µM) | 0.6 (≈ 0.83 µM) | 2 (≈ 2.77 µM) |  |  |  |  |  |  |  |  |  | 
6 | Oc1ccc([C@H]2c3c(O)cc(O)cc3[C@H]3c4c(cc(O)cc4[C@@H]2O)O[C@@H]3c2ccc(O)cc2)cc1 [AMPELOPSIN A] | > 20 |  | > 20 |  | > 20 | > 20 | > 20 |  | > 20 | 8 |  | 10 | 38 | 7 | 32 | 38
